Peptide text beside a SMILES is read from it. * marks the point of attachment. Cbz = O=C(OCc1ccccc1)*; CH2F = FC*
What was measured:
Hela cells = assay: STS-induced apoptosis in Hela cells, Hoechst staining of apoptotic nuclei; assay type: cell-based, human; conditions: for percentages of apoptotic cells: Hela cells, one day; for effect on STS-induced apoptosis: HeLa cells transfected with Ku70 construct, 24 hours
Procedure: Hela cells (10^6 cells) were transfected with 0.5 μg pEGFP and 1.0 μg pCMV-2B (Vector), pCMV-2B-Ku70 (Ku70 wt), pCMV-2B-Ku701-535 (Ku701-535), or pCMV-2B-Ku70536-609 (Ku70536-609). One day following transfection, cells were treated with 200 nM STS and the number of apoptotic cells was counted as described in FIG. 1 after 24 hours of STS treatment.
Hela cells (10^6 cells) were treated with 200 nM STS in the absence (STS) or presence of z-VAD-fmk (STS+z-VAD).

HEK293T cells [1] = assay: UVC-irradiation-induced apoptosis in HEK293T cells, Hoechst staining; assay type: cell-based; conditions: for effect on UVC-irradiation-induced cell death: HEK293T cells transfected with Ku70 construct, 200 J/m^2 UVC, 24 hours
Procedure: HEK293T cells (10^6 cells) were transfected with 0.5 μg PEGFP and 1.0 μg pCMV-2B (Vector), pCMV-2B-Ku70 wt (Ku70 wt), or pCMV-2B-Ku70536-609 (Ku70536-609). One day following transfection, cells were exposed to 200 J/m^2 of UVC-irradiation. After 24 hours, apoptotic cells were counted as described in FIG. 1.
One day following transfection, except in the control group (Control), cells were exposed to UVC-irradiation in the absence (UV or UV+Ku70) or the presence of 50 uM z-VAD-fmk (UV+z-VAD).
HEK293T cells, HeLa cells, and mouse embryonic fibroblasts (MEF) were cultured in DMEM supplemented with 10% fetal bovine serum (FBS).

HEK293T cells [2] = assay: Bax-induced apoptosis in HEK293T cells (pcDNA3-Bax transfection); assay type: cell-based; conditions: HEK293T cells co-transfected with pcDNA3-Bax and Ku70 construct, 24 hours
Procedure: 10^6 cells were transfected with 1.0 μg of pcDNA3 (Control) or pcDNA3-Bax (Bax) together with 0.5, 1.0, or 2.0 μg of pCMV-2B-Ku70 wt (Ku70 wt) or pcDNA3-Myc-XIAP (XIAP). In “Bax+Vector” group, 1.0 μg pcDNA3-Bax and 2 ug of pCMV-2B were used, respectively (Control and Bax+Vector). All the cells were also co-transfected with 0.5 μg pEGFP for the marking of transfected cells. Apoptosis in the transfected cells was analyzed 24 hours following transfection with Hoechst dye staining of the nucleus as described in Experimental Procedure. […] 10^6 cells were transfected with 1.0 μg pcDNA3-Bax and 2.0 μg pCMV-2B (Bax+Vector), pCMV-2B-Ku70 wt (Bax+Ku70 wt), or pcDNA3-Myc-XIAP (Bax+XIAP). […] Apoptosis in the transfected cells was analyzed at 24 hours (Control) or the indicated time points following transfection. […] After 24 hours, apoptotic cells were counted as described in FIG. 1B. […] The number of apoptotic cells was determined as described in FIG. 1B. […] Apoptosis in the transfected cells was analyzed at the indicated periods following transfection as described in FIG. 1C.
HEK293T cells, HeLa cells, and mouse embryonic fibroblasts (MEF) were cultured in DMEM supplemented with 10% fetal bovine serum (FBS). […] Apoptosis in the transfected cells were analyzed as follows: Plasmid encoding EGFP (0.5 ug of pEGFP) was transfected to all the groups to mark the transfected cells. […]

Bax [3] = biological target: T1, Bax (Homo sapiens, UniProt Q07812); assay: Co-immunoprecipitation of Flag-tagged Ku70 constructs and Bax; assay type: binding; conditions: HEK293T cells, Flag-tagged constructs, 50 uM z-VAD-fmk, Chaps-based buffer
T1 construct: expressed in transfected cells; host or cells: HEK293T
Procedure: Interaction of Ku70 and Bax. […] (FIG. 4D) Co-immunoprecipitation of Flag-tagged-Ku70 and endogenous Bax. HEK293T cells (10^6 cells) were co-transfected with 1.0 μg pcDNA3-Bax and 1.0 μg pCMV-2B-control vector (Flag-tagged firefly luciferase), pCMV-2B-Ku70 wt (Flag-Ku70 wt), pCMV-2B-Ku701-535 (Flag-Ku701-535), pCMV-2B-Ku70496-609 (Flag-Ku70496-609) or pCMV-2B-Ku70536-609 (Flag-Ku70536-609) in the presence of 50 μM z-VAD-fmk. Co-immunoprecipitation was performed as described in FIG. 4C, and Western blot of Bax was done with anti-human Bax polyclonal antibody.
Immunoprecipitation was performed as follows according to the previous methods (Hsu and Youle, 1998, Matsuyama, 1998a). After precleaning of 600 ul of the sample with 50 ul of Protein G-Sepharose at 4° C. for 1 hour, immunoprecipitations were performed by incubating 200 ul of lysates with 20 ul of Protein G-Sepharose preabsorbed with 2 ug of anti-Bax polyclonal antibody or 2 ug of anti-Ku70 monoclonal antibody at 4° C. for 2 hours. After extensive washing in the buffer, beads were boiled in 40 ul of Laemmli buffer and 20 ul of the eluted proteins were subjected to SDS-PAGE immunoblot analysis.

Du145 cells = assay: Apoptosis in Bax-deficient Du145 cells; assay type: cell-based, human; conditions: Du145, 200 J/m^2 UVC, 24 hours
Procedure: Du145 cells (10^6 cells) were transfected with 0.5 μg PEGFP and 1.0 μg pCMV-2B (Vector), pcDNA3-Myc-XIAP (XIAP), pCMV-2B-Ku70 wt (Ku70 wt), or pCMV-2B-Ku70536-609 (Ku70536-609). One day following transfection, cells were exposed to 200 J/m^2 of UVC-irradiation. After 24 hours, apoptotic cells were counted as described in FIG. 1.
Apoptosis was induced by pcDNA3-human Bax (Bax-encoding plasmid)-transfection, Staurosporin (STS)-treatment, UVC-irradiation, anti-Fas-antibody-treatment (clone CH11), and human recombinant TRAIL-treatment (BD-Pharmingen). The amount of the plasmids, the concentration of STS, Fas-antibody, and TRAIL, and the energy of UVC-irradiation are as described in the figure legends. Apoptosis in the transfected cells were analyzed as follows: Plasmid encoding EGFP (0.5 ug of pEGFP) was transfected to all the groups to mark the transfected cells. One day following transfection of the plasmids listed in the figure legends or treatment of the cells with staurosporin (STS) or UVC-irradiation, cells were stained with Hoechst dye and cells with apoptotic nuclei were counted in GFP expressing cells under fluorescent microscope as previously reported (Wei, et al., 2001). Each point in the figures showing percentages of apoptosis represents the mean±SE of three experiments.

Bax [4] = assay: Subcellular localization / mitochondrial translocation of Bax (fractionation, Western blot, confocal); assay type: cell-based; conditions: HeLa cells 200 nM STS; HEK293T cells UVC 200 J/m^2
Procedure: FIG. 6A: Subcellular localization of Bax and Ku70. HeLa cells (10^7 cells) were transfected with 10 μg pCMV-2B (Control, STS,) or pCMV-2B-Ku70 (STS+Ku70). One day following transfection, except in the control group (Control), cells were treated by 200 nM STS (STS). One day after STS-treatment, cells were collected and subcellular fractionation was performed as described in Experimental Procedure. The levels of Ku70 (Ku70) and Bax (Bax) in each fraction were analyzed by Western blotting as described in Experimental Procedure. FoF1 ATP synthase subunit α (F1α) and PCNA (PCNA) were used as markers for mitochondrial and nuclear fractions, respectively. HM stands for “Heavy Membrane” fraction containing mitochondria. […] Cytosol fractions (20 μg protein) were separated by SDS-PAGE and analyzed by Western blotting for Ku70 (anti-Ku70 monoclonal antibody, BD-Pharmingen) and β-Tubulin (anti-β-Tubulin monoclonal antibody, BD-Pharmingen) levels. […] MEFs derived from wild-type (Ku70+/+) or Ku70-knockout mice (Ku70−/−) were analyzed as described in FIG. 6A. […] MEFs derived from wild-type (Ku70+/+) or Ku70-deficient (Ku70−/−) mice were treated with STS (200 nM) and cells were analyzed at indicated various periods after treatment as described in FIG. 6A. […]

Bax [5] = assay: Mitochondrial translocation of Bax after TRAIL treatment in T98-G and Hep3B cells; assay type: cell-based, human; conditions: T98G and Hep3B, 100 ng/ml TRAIL, 24 hours
Procedure: FIG. 14. […] One day following the transfection, cells were treated by etoposide (20 uM). One day after the addition of etoposide into the culture, cells were collected and subcellular fractionation was performed as described in FIG. 9. […] Bax leveles in the samples of the fractions of the cytosol (“Cytosol”) and the heavy membrane (“HM”) were analyzed by Western blotting (middle and lower panels). […] All cells were also co-transfected with the plasmid encoding Green Fluorescent Protein (GFP) (pEGFP plasmid) for the detection of the transfected cells by GFP expression. One day following the transfection, etoposide (20 uM), cisplatin (20 uM), doxorubicin (1 uM), or TRAIL (100 ng/ml) was added to the culture, and cells were culture for 48 hours. The percentages of apoptotic cells were counted in GFP-expressing cells by staining the nucleus with Hochst-dye on day 1 and 2 of the culture. […] T98-G (glioma cell line) and Hep3B (hepatoma cell line) cells were cultured for 24 hours in the absence (“Control”) or the presence (“TRAIL”) of 100 ng/ml TRAIL. After the culture, cells were collected and subcellular fractionation was performed as described in FIG. 2. The samples of the cytosol fraction (20 ug protein) (“Cytosol”) and the equivalent proportion of heavy membrane fraction (“HM”) were subjected to Western analysis of Bax.

T1 sequence (Q07812 whole entry): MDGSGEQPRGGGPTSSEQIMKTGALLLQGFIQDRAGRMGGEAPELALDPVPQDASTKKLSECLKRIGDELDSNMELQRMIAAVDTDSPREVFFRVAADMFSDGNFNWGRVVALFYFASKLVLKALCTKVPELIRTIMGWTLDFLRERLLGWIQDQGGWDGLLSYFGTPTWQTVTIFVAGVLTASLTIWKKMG

**Q.** CN[C@@H]1C[C@H]2O[C@@](C)([C@@H]1OC)n1c3ccccc3c3c4c(c5c6ccccc6n2c5c31)C(=O)NC4 [STS, Staurosporine, reference compound] was tested. Which “percentages of apoptotic cells” value (Hela cells; 200 nM STS, control 3±1%) did it give?
**A.** 49±4%

**Q.** COC(=O)C[C@H](NC(=O)[C@H](C)NC(=O)[C@@H](NC(=O)OCc1ccccc1)C(C)C)C(=O)CF [z-VAD-fmk, reference compound] (Cbz-Val-Ala-Asp(OMe)-CH2F) was tested. Which “percentages of apoptotic cells” value (Hela cells; 200 nM STS in presence of z-VAD-fmk) did it give?
**A.** 11±3%

**Q.** And the “percentages of apoptotic cells” value (HEK293T cells [1]; HEK293T cells, UVC 200 J/m^2 in presence of 50 uM z-VAD-fmk, one day, UV alone 42±5%)?
**A.** 9±1%

**Q.** Which results are given for “Ku70496-609: Ku70 mutant construct encoding amino acids 496-609 of Ku70, lacking Ku80-binding domain”?
**A.** effect on STS-induced apoptosis (Hela cells; 200 nM STS): retained the cytoprotective activities; effect on UVC-irradiation-induced cell death (HEK293T cells [1]): retained the cytoprotective activities; effect on Bax-induced apoptosis (HEK293T cells [2]): retained the cytoprotective activities; binding to Bax (co-immunoprecipitation) (Bax [3]): bound to Bax

**Q.** What does the source list for “Ku70536-609: Ku70 mutant expressing only the C-terminal 74 amino acids of Ku70”?
**A.** effect on STS-induced apoptosis (Hela cells; 200 nM STS): sufficient to block; effect on UVC-irradiation-induced cell death (HEK293T cells [1]): sufficient to block; effect on Bax-induced apoptosis (HEK293T cells [2]): sufficient to block; binding to Bax (co-immunoprecipitation) (Bax [3]): bound to Bax; effect on UVC-irradiation-induced cell death in Bax-deficient cells (Du145 cells): did not rescue Bax-deficient cells from UVC-irradiation-induced cell death; mitochondrial translocation of Bax induced by STS-treatment or UVC-irradiation (Bax [4]): inhibited Bax relocalization induced by UVC-irradiation

B1: TRAIL: cytokine, Tumor Necrosis Factor-Related Apoptosis-Inducing Ligand, human recombinant (protein, UniProt P50591 1-281, looked up)
Tumor necrosis factor ligand …: MAMMEVQGGPSLGQTCVLIVIFTVLLQSLCVAVTYVYFTNELKQMQDKYSKSGIACFLKEDDSYWDPNDEESMNSPCWQVKWQLRQLVRKMILRTSEETISTVQEKQQNISPLVRERGPQRVAAHITGTRGRSNTLSSPNSKNEKALGRKINSWESSRSGHSFLSNLHLRNGELVIHEKGFYYIYSQTYFRFQEEIKENTKNDKQMVQYIYKYTSYPDPILLMKSARNSCWSKDAEYGLYSIYQGGIFELKENDRIFVSVTNEHLIDMDHEASFFGAFLVG
**Q.** How did the “mitochondrial translocation of Bax” value (Bax [5]) turn out when B1 was run?
**A.** did not induce the mitochondrial translocation of Bax

From US20070036775A1 (priority 2001, published 2007)
